US9545407B2, “Formulations of a bruton's tyrosine kinase inhibitor” (Pharmacyclics LLC, priority 2014, dated 2017)
Where two headings read alike, the source gives them in different places.

System: OCI-Ly10
Assay: growth inhibition of OCI-Ly10 (ABC subtype DLBCL cells)
Type: cell-based
Settings: Homo sapiens
Excerpt: See U.S. Pat. No. 7,711,492 and Staudt et al., Nature, Vol. 463, Jan. 7, 2010, pp. 88-92, the contents of which are incorporated by reference in their entirety.

EC50 (continuous exposure, read-out: EC50 continuous exposure): 10 nM
EC50 (read-out: EC50 1 hour pulse, 1 hour pulse): 50 nM
SMILES: C=CC(=O)N1CCC[C@@H](n2nc(-c3ccc(Oc4ccccc4)cc3)c3c(N)ncnc32)C1 [Compound 1, 1-((R)-3-(4-amino-3-(4-phenoxyphenyl)-1H-pyrazolo[3,4-d]pyrimidin-1-yl)piperidin-1-yl)prop-2-en-1-one]
